Consider 4 compounds from US20110086759A1, “CHEMICAL COMPOUNDS” (SYNGENTA CROP PROTECTION, INC., priority 2007, published 2011).

The structures appear in SMILES notation.

Format in all cases: in vivo
Assay [1] concerns Alopecurus myosuroides (ALOMY). The assay is described as follows: Pre-emergence biological efficacy, glasshouse pot test. As to conditions: 312 h, evaluated after 13 days (100=total damage; 0=no damage), read-out: Percentage damage ALOMY; for pest or weed control at 1000 g/ha: pre-emergence, 1,000 g/ha. Put shortly:
(§1)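 One day after seeds were sown in pots, compound was sprayed at 1000 or 250 g/ha. Plants were kept at 24/16 °C with 14 h light and 65% humidity and watered twice daily; damage was graded at day 13 (0 none, 100 total).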

The subject of assay [2] is Amaranthus retoflexus (AMARE). The assay is described as above. Particulars: Amaranthus retroflexus, 312 h, evaluated after 13 days (100=total damage; 0=no damage), read-out: Percentage damage AMARE; for pest or weed control at 1000 g/ha: pre-emergence, 1,000 g/ha. Put shortly: as §1
Assay [3] has as its system Echinochloa crus-galli (ECHCG). The assay is described as above. As to conditions: 312 h, evaluated after 13 days (100=total damage; 0=no damage), read-out: Percentage damage ECHCG; for pest or weed control at 1000 g/ha: pre-emergence, 1,000 g/ha. The method in brief:
as §1

Assay [4] concerns Ipomea hederaceae (IPOHE). Described as above. Particulars: Ipomoea hederacea, 312 h, evaluated after 13 days (100=total damage; 0=no damage), read-out: Percentage damage IPOHE; for pest or weed control at 1000 g/ha: pre-emergence, 1,000 g/ha. The method in brief: as §1
For assay [5], the system named is Setaria faberi (SETFA). The assay is described as above. As to conditions: 312 h, evaluated after 13 days (100=total damage; 0=no damage), read-out: Percentage damage SETFA; for pest or weed control at 1000 g/ha: pre-emergence, 1,000 g/ha. Put shortly:
as §1

Assay [6] relates to Solanum nigrum (SOLNI). Described as above. Particulars: 312 h, evaluated after 13 days (100=total damage; 0=no damage), read-out: Percentage damage SOLNI; for pest or weed control at 1000 g/ha: pre-emergence, 1,000 g/ha. Put shortly: as §1
Assay [7] concerns Alopecurus myosuroides (ALOMY). The assay is described as follows: Post-emergence biological efficacy, glasshouse pot test. Particulars: 312 h, evaluated after 13 days (100=total damage; 0=no damage), read-out: Percentage damage caused to weed species, ALOMY; for pest or weed control at 1000 g/ha: post-emergence, 1,000 g/ha. Put shortly: (§2)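 Plants were sown in standard soil and grown 8 days in a glasshouse (24/16° C. day/night, 14 hours light, 65% humidity), then sprayed post-emergence at 1000 or 250 g/ha from acetone/water (50:50) with 0.5% Tween 20. Damage was scored visually after 13 days (0 = none, 100 = total).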

In assay [8] the test system is Amaranthus retoflexus (AMARE). The assay is described as above. As to conditions: Amaranthus retroflexus, 312 h, evaluated after 13 days (100=total damage; 0=no damage), read-out: Percentage damage caused to weed species, AMARE; for pest or weed control at 1000 g/ha: post-emergence, 1,000 g/ha. Put shortly:
as §2

Assay [9] deals with Echinochloa crus-galli (ECHCG). The description is as above. Particulars: 312 h, evaluated after 13 days (100=total damage; 0=no damage), read-out: Percentage damage caused to weed species, ECHCG; for pest or weed control at 1000 g/ha: post-emergence, 1,000 g/ha. Put shortly: as §2
Assay [10] relates to Ipomea hederaceae (IPOHE). The assay is described as above. As to conditions: Ipomoea hederacea, 312 h, evaluated after 13 days (100=total damage; 0=no damage), read-out: Percentage damage caused to weed species, IPOHE; for pest or weed control at 1000 g/ha: post-emergence, 1,000 g/ha. Put shortly:
as §2

Assay [11] deals with Setaria faberi (SETFA). The assay is described as above. Particulars: 312 h, evaluated after 13 days (100=total damage; 0=no damage), read-out: Percentage damage caused to weed species, SETFA; for pest or weed control at 1000 g/ha: post-emergence, 1,000 g/ha. The method in brief:
as §2

The subject of assay [12] is Solanum nigrum (SOLNI). The description is as above. As to conditions: 312 h, evaluated after 13 days (100=total damage; 0=no damage), read-out: Percentage damage caused to weed species, SOLNI; for pest or weed control at 1000 g/ha: post-emergence, 1,000 g/ha. The method in brief: as §2

As for `COC(=O)c1nc(C2CC2)nc(NCCC2OCCO2)c1Cl` [Compound 4-216, 5-Chloro-2-cyclopropyl-4-[2-(1,3-dioxolan-2-yl)ethylamino]-6-methoxycarbonyl-pyrimidine], the pest or weed control at 1000 g/ha was 30% in assay [1]; 100% in assay [2]; 40% in [3]; 100% in [4]; 40% in the assay on Setaria faberi (SETFA) [5]; 90% in the assay with Solanum nigrum (SOLNI) [6]. The pest or weed control at 1000 g/ha worked out at 20% in assay [7]; 100% in [8]; 20% in assay [9]; 80% in [10]; 60% with Setaria faberi (SETFA) [11]; 70% in the assay on Solanum nigrum (SOLNI) [12].
Regarding `COC(=O)c1nc(C2CC2)nc(NC(C)c2ccc(Br)cc2)c1Cl` (stereo not drawn) [Compound 4-177, 4-[1-(4-Bromophenyl)ethyl-amino]-5-chloro-2-cyclopropyl-6-methoxycarbonyl-pyrimidine], the pest or weed control at 1000 g/ha in assay [1] worked out at 0%; in assay [2], 20%; in assay [3], 0%; in assay [4], 20%; with Setaria faberi (SETFA) [5], 0%; with Solanum nigrum (SOLNI) [6] it was 0%. The pest or weed control at 1000 g/ha in assay [7] stood at 20%; in assay [8], 90%; in assay [9], 50%; in assay [10] it was 100%; with Setaria faberi (SETFA) [11], 40%; in the assay with Solanum nigrum (SOLNI) [12], 90%.
As for `COC(=O)c1nc(C2CC2)nc(NCc2ccccc2Br)c1Cl` [Compound 4-67, 4-(2-Bromophenyl-methylamino)-5-chloro-2-cyclopropyl-6-methoxycarbonyl-pyrimidine], the pest or weed control at 250 g/ha in assay [1] (pre-emergence, 250 g/ha) was 0%; in [2] (pre-emergence, 250 g/ha), 40%; in assay [3] (pre-emergence, 250 g/ha), 0%; in [4] (pre-emergence, 250 g/ha), 0%; in the assay on Setaria faberi (SETFA) [5] (pre-emergence, 250 g/ha), 0%; with Solanum nigrum (SOLNI) [6] (pre-emergence, 250 g/ha), 20%. Further, the pest or weed control at 250 g/ha in [7] (post-emergence, 250 g/ha) was 20%; in assay [8] (post-emergence, 250 g/ha), 90%; in assay [9] (post-emergence, 250 g/ha), 50%; in assay [10] (post-emergence, 250 g/ha) it was 80%; in the assay on Setaria faberi (SETFA) [11] (post-emergence, 250 g/ha), 70%; in the assay with Solanum nigrum (SOLNI) [12] (post-emergence, 250 g/ha), 90%.
Regarding `COC(=O)c1nc(C2CC2)nc(NCCc2c[nH]c3ccc(OC)cc23)c1Cl` [Compound 4-227, 5-Chloro-2-cyclopropyl-6-methoxycarbonyl-4-[2-(5-methoxyindol-3-yl)-ethylamino]-pyrimidine], the pest or weed control at 1000 g/ha was 0% in assay [1]; 20% in [2]; 0% in [3]; 50% in assay [4]; 0% in the assay with Setaria faberi (SETFA) [5]; 30% with Solanum nigrum (SOLNI) [6]. For the same compound, the pest or weed control at 1000 g/ha in [7] turned out to be 10%; in assay [8], 70%; in assay [9], 30%; in [10], 70%; in the assay with Setaria faberi (SETFA) [11], 40%; in the assay with Solanum nigrum (SOLNI) [12] it was 80%.
